Results from the NIST ThermoML archive (doi:10.1021/je0499768).

What was measured:
[1] = Crystal
[2] = Molar enthalpy of transition or fusion; conditions: Crystal
[3] = molar heat capacity at saturation pressure; conditions: Glass

CCCO [propan-1-ol]
Conditions	Molar enthalpy of transition or fusion [kcal/mol]	Triple point temperature [K]
[1]	–	148.71
[2]	1.291	–

[3]
Conditions	molar heat capacity [J/K/mol]
84.71 K	55.24
86.52 K	56.57
89.38 K	58.64
92.19 K	61.1
94.96 K	66.41
